Experiments:
Type in all cases: physicochemical
[1] = Gelling of water-immiscible cosmetic liquids in 96 well glass micro-titre plate; parameters: key: gel; g4: gel after overnight (18 hrs) storage at 4° C.; g22: gel after overnight (18 hrs) storage at 22° C.; sg: soft gel; sg22: soft gel after overnight (18 hrs) storage at 22° C.; solution; *: the test at 4° C. was not carried out; conditions: for gelling of ISA: 150° C. 2.5 hours, cooled to ambient
Protocol: In this Example, various samples of esterified cellobiose prepared as in Example 1 or 2 above, were used to gel water-immiscible cosmetic liquids, in accordance with the procedure given below, in which a large number of gels can be prepared simultaneously.
The samples were tested in a 96 well (8×12 rows) glass micro-titre plate. […] About 0.01 or 0.02 g of each esterified cellobiose material was placed into 8 consecutive wells in a single row, so that each well contained approximately 5% or 10% of the cellobiose ester. The balance in each well comprised the cosmetic liquid by addition of approximately 0.2 g of the respective liquid to each cell. A glass lid was placed on top of the plate. The plate was carefully placed in a thermostatically controlled fan-assisted oven set at 150° C. for 2.5 hours. The plate was removed from the oven and allowed to cool naturally to ambient laboratory temperature. The contents of the wells were assessed at the end of the cooling period, by visual inspection and by poking the contents of each well with a micro-spatula. The plates were stored at […] for 18 hours and the contents inspected, and further stored for 18 hours at 4° C. and inspected for a third time. The results obtained in the tests are summarised in Table 5 below, in which the legend is as follows: […]

[2] = Stability testing of gels: crystal growth visible by eye on storage at 37° C.
Protocol: Gels were made up using 10% structurant in a 60:40 mixture of Hydrogenated Polyisobutene (Panalene L14E):DC245. The gels, in sealed glass bottles, were left to stand for 18 hrs at room temperature, after which they were transferred to an oven thermostatically controlled to 37° C. Samples were checked periodically for signs of crystal growth visible by eye. REF1 is cellobiose octanonanoate.
Gels were made up and tested in accordance with the procedure in Example 6, as such or modified by employing a weight ratio of 9% of REF1 and 1% of an additional structurant as specified in Table 13 below.
The test procedure of Example 9 was repeated, but using ACB structurant REF2 alone as the structurant or to which a CHME structurant was added.

[3] = Visual assessment score (clarity of gel in 1 cm cuvette); conditions: for Clarity Visual (appearance): 9% REF4 plus 1% of the named material in 60:40 hydrogenated polydecene:DC245; for Clarity Visual (assessment score): 9% REF4 plus 1% of the named material, scale −12 to 8; for Visual: gel in 60:40 w/w Silkflo 364:DC245, score scale −12 to 8
Description: A gel contained within a 1 cm thick cuvette was placed directly on to a sheet of white paper on which 21 sets of figures where printed in black. The size and thickness of the figures varied systematically and were numbered from −12 (the largest, thickest set) through 0 to 8 (the smallest thinnest set) The score given to each gel was the highest numbered set which could be read clearly through the gel, the higher the number, the higher the clarity.

[4] = Light transmission at 580 nm (% T); conditions: 580 nm
Protocol: The translucency of a composition may be measured by placing a sample of standardised thickness in the light path of a spectrophotometer and measuring transmittance, as a percentage of light transmitted in the absence of the gel.
This test was carried out using a dual-beam spectrophotometer. The sample of composition was poured hot into a 4.5 ml cuvette made of poly(methyl-methacrylate) (PMMA) and allowed to cool to an ambient temperature of 20-25° C. Such a cuvette gives a 1 cm thickness of composition. […] A transmittence measured at any temperature in the range from 20-25° C. is usually adequately accurate, but measurement is made at 22° C. if more precision is required.

[5] = 5% cellobiose ester in Fluid AP
[6] = 5% cellobiose ester in Mineral oil
[7] = 5% cellobiose ester in Polydecene
[8] = 10% cellobiose ester in Fluid AP
[9] = 10% cellobiose ester in Mineral oil
[10] = 10% cellobiose ester in Polydecene
[11] = 9% REF4 plus 1% of the named material
[12] = Ex 2.6:REF 4 at stated weight ratio, total 10% in 60:40 w/w Silkflo 364NF:DC245

Visual [3]	Molecule	gelling of DC556 ([1]; 5% cellobiose ester in DC556)	gelling of Fluid AP [1, 5]	gelling of ISA ([1]; 5% cellobiose ester in ISA)	gelling of Mineral oil [1, 6]	gelling of Polydecene [1, 7]	gelling of DC556 ([1]; 10% cellobiose ester in DC556)	gelling of Fluid AP [1, 8]	gelling of ISA ([1]; 10% cellobiose ester in ISA)	gelling of Mineral oil [1, 9]	gelling of Polydecene [1, 10]	also measured
	CCCCCCCCCCCCCCCC(=O)OC1OC(COC(=O)CCCCCCCC)C(OC2OC(COC(=O)CCCCCCCC)C(OC(=O)CCCCCCCC)C(OC(=O)CCCCCCCC)C2OC(=O)CCCCCCCC)C(OC(=O)CCCCCCCC)C1OC(=O)CCCCCCCC (mixture of isomers) [Ex 1.8]	gel	gel	g22	g22	gel	gel	gel	g22	g22	gel	Observations ([2]; 9% of REF1 and 1% of additional structurant, after 15 days at 37° C.): No crystals after 15 days at 37 °C
	CCCCCCCCCC(=O)OCC1OC(OC2C(COC(=O)CCCCCCCCC)OC(OC(C)=O)C(OC(=O)CCCCCCCCC)C2OC(=O)CCCCCCCCC)C(OC(=O)CCCCCCCCC)C(OC(=O)CCCCCCCCC)C1OC(=O)CCCCCCCCC (mixture of isomers) [Ex 2.5]	gel	gel	gel	gel	gel						
	CCCCCCCCCC(=O)OCC1OC(OC2C(COC(=O)CCCCCCCCC)OC(OC(=O)c3ccccc3)C(OC(=O)CCCCCCCCC)C2OC(=O)CCCCCCCCC)C(OC(=O)CCCCCCCCC)C(OC(=O)CCCCCCCCC)C1OC(=O)CCCCCCCCC (mixture of isomers) [Ex 2.6]											Clarity Visual (appearance) [3]: translucent; Clarity Visual (assessment score) [3]: −8; Clarity % T [4, 11]: 4.5%
	CCCCCCCCCC(=O)OCC1OC(OC2C(COC(=O)CCCCCCCCC)OC(OC(=O)CCCCC)C(OC(=O)CCCCCCCCC)C2OC(=O)CCCCCCCCC)C(OC(=O)CCCCCCCCC)C(OC(=O)CCCCCCCCC)C1OC(=O)CCCCCCCCC (mixture of isomers) [Ex 2.11]	gel	gel	gel	gel	gel	gel	gel	gel	gel	gel	
	CCCCCCCCCCCCCCCC(=O)OC1OC(COC(=O)CCCCCCCCC)C(OC2OC(COC(=O)CCCCCCCCC)C(OC(=O)CCCCCCCCC)C(OC(=O)CCCCCCCCC)C2OC(=O)CCCCCCCCC)C(OC(=O)CCCCCCCCC)C1OC(=O)CCCCCCCCC (mixture of isomers) [Ex 2.12]	gel	gel	g22	gel	gel	gel	gel	gel	gel	gel	
	CCCCCCCCCCCCCCCC(=O)OC1OC(COC(=O)CCCCCCCCC)C(OC2OC(COC(=O)CCCCCCCCC)C(OC(=O)CCCCCCCCC)C(OC(=O)CCCCCCCCC)C2OC(=O)CCCCCCCCC)C(OC(=O)CCCCCCCCC)C1OC(=O)CCCCCCCCC (mixture of isomers) [Ex 2.13]	gel	gel	gel	gel	gel	gel	gel	gel	gel	gel	
	CCCCCCCCC(=O)OCC1OC(OC2C(COC(=O)CCCCCCCC)OC(OC(=O)C3CCCC3)C(OC(=O)CCCCCCCC)C2OC(=O)CCCCCCCC)C(OC(=O)CCCCCCCC)C(OC(=O)CCCCCCCC)C1OC(=O)CCCCCCCC (mixture of isomers) [Ex 3.5]	g22	sg22	sg22	sol*	gel	gel	gel	g22	gel	gel	
	CCCCCCCCCC(=O)OCC1OC(OC2C(COC(=O)CCCCCCCCC)OC(OC(=O)CCCCCCCCC)C(OC(=O)CCCCCCCCC)C2OC(=O)CCCCCCCCC)C(OC(=O)CCCCCCCCC)C(OC(=O)CCCCCCCCC)C1OC(=O)CCCCCCCCC (mixture of isomers) [REF 4, reference compound]											Clarity Visual (appearance) [3]: opaque; Clarity Visual (assessment score) [3]: < −12; Clarity Visual Score [3, 12]: <−12; Clarity % T [4, 11]: 0.36%; Clarity % T [4, 12]: 0.36%
	CCCCCCCCC(=O)OC[C@H]1O[C@@H](O[C@H]2[C@H](OC(=O)CCCCCCCC)[C@@H](OC(=O)CCCCCCCC)C(OC(=O)CCCCCCCC)O[C@@H]2COC(=O)CCCCCCCC)[C@H](OC(=O)CCCCCCCC)[C@@H](OC(=O)CCCCCCCC)[C@@H]1OC(=O)CCCCCCCC (some centres unmarked) [REF 1, cellobiose octanonanoate]											Observation ([2]; 10% structurant in 60:40 Hydrogenated Polyisobutene (Panalene L14E):DC245, after 18 hrs at RT): Small crystals visible in gel after; Observation ([2]; 10% structurant in 60:40 Hydrogenated Polyisobutene (Panalene L14E):DC245, after 18 hrs at RT, listed as REF1): Small crystals visible in gel after 18; Observation ([2]; 10% structurant in 60:40 Panalene L14E:DC245, after 6 hrs at 37° C.): More and bigger crystals after 6 hrs; Observation ([2]; 10% structurant in 60:40 Panalene L14E:DC245, after 6 hrs at 37° C., listed as REF1): More and bigger crystals after 6 hrs at; Observation ([2]; 10% structurant in 60:40 Panalene L14E:DC245, after 3 days at 37° C.): Crystals throughout gel after 3 days; Observation ([2]; 10% structurant in 60:40 Panalene L14E:DC245, after 3 days at 37° C., listed as REF1): 37° C.; Crystals throughout gel after 3 days
3	cellobiose heptanonanoate monocyclohexanoate [Ex 1.12]											
6	cellobiose heptanonanoate monocyclohexanoate [Ex 1.13]											
3	cellobiose heptanonanoate monocyclohexanoate [Ex 1.14]	gel	gel	g22	gel	gel	gel	gel	gel	gel	gel	gelling of IPM ([1]; 5% cellobiose ester in IPM): sol; gelling of IPM ([1]; 10% cellobiose ester in IPM): g4
3	cellobiose heptanonanoate monocyclohexanoate [Ex 3.1]											
5	cellobiose heptanonanoate monocyclohexanoate [Ex 3.2]											

Molecule	Visual [3]	gelling of DC556 ([1]; 5% cellobiose ester in DC556)	gelling of Fluid AP [1, 5]	gelling of ISA ([1]; 5% cellobiose ester in ISA)	gelling of Mineral oil [1, 6]	gelling of Polydecene [1, 7]	gelling of DC556 ([1]; 10% cellobiose ester in DC556)	gelling of Fluid AP [1, 8]	gelling of ISA ([1]; 10% cellobiose ester in ISA)	gelling of Mineral oil [1, 9]	gelling of Polydecene [1, 10]	also measured
CCCCCCCCC(=O)OCC1OC(OC2C(COC(=O)CCCCCCCC)OC(OC(=O)C3CCCCC3)C(OC(=O)CCCCCCCC)C2OC(=O)CCCCCCCC)C(OC(=O)CCCCCCCC)C(OC(=O)CCCCCCCC)C1OC(=O)CCCCCCCC (mixture of isomers) [Ex 3.3, cellobiose heptanonanoate monocyclohexanoate]	>8											% T ([4]; gel in 60:40 w/w Silkflo 364:DC245): 53%

Reference: patent US6974804B2, “Esters” (Unilever Home & Personal Care USA, division of Conopco, Inc., priority 2000, dated 2005)
